Experimental data published in PubChem BioAssay (NCI).
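Briefly, cells in 96-well plates were exposed to five compound concentrations for 48 h, and endpoints were estimated by linear interpolation. The concentration for 50% growth inhibition is given as GI50. TGI: total growth inhibition.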

Experiments:
Assay in all cases: NCI anticancer screen, dose series, 48 h
[1] = test system: A549 NSCLC
[2] = test system: OVCAR-8 ovarian
[3] = test system: OVCAR-4 ovarian
[4] = test system: OVCAR-5 ovarian
[5] = test system: ACHN renal
[6] = test system: SK-OV-3 ovarian
[7] = test system: TK-10 renal
[8] = test system: SK-MEL-28 melanoma
[9] = test system: CAKI-1 renal
[10] = test system: SNB-75 CNS
[11] = test system: SF-295 CNS
[12] = test system: OVCAR-3 ovarian
[13] = test system: NCI-H226 lung
[14] = test system: SR leukemia
[15] = test system: BT-549 breast
[16] = test system: HS 578T breast
[17] = test system: MDA-MB-231 breast

SMILES	TGI [1] [µM]	TGI [2] [µM]	TGI [3] [µM]	TGI [4] [µM]	TGI [5] [µM]	TGI [6] [µM]	TGI [7] [µM]	TGI [8] [µM]	TGI [9] [µM]	TGI [10] [µM]	TGI [11] [µM]	TGI [12] [µM]	TGI [13] [µM]	TGI [14] [µM]	TGI [15] [µM]	TGI [16] [µM]	TGI [17] [µM]	GI50 [1] [µM]
NC(=O)CCC(N=C(N)c1csc(C2OC(CO)C(O)C2O)n1)C(=O)O (stereo not drawn)	> 100	> 100	> 100	> 100	> 100	> 100	> 100	> 100	> 100	> 100	> 100	–	–	–	–	–	–	–
C/C=C/C1=CC(=O)C(O)C1O (stereo not drawn)	107	79.9	111	130	–	130	–	97.9	43.7	67.5	118	67.7	62.5	–	–	–	–	–
CC(=O)OC/C=C\Cn1nc(Br)c(=O)[nH]c1=O	32.3	34.7	–	31.8	23.4	–	38.2	32	22.8	29.6	–	22.5	30.1	15.6	22.2	54	43.4	–
CC(=O)NC(CCC(=O)C=[N+]=N)C(=O)O (stereo not drawn)	> 100	> 100	> 100	> 100	> 100	> 100	> 100	> 100	–	> 100	> 100	> 100	> 100	> 100	> 100	> 100	> 100	–
CNC(=O)SCC(N)C(=O)O (stereo not drawn)	> 100	> 100	> 100	> 100	–	> 100	–	> 100	> 100	> 100	> 100	> 100	> 100	–	–	–	–	–
CC(=O)O[C@H]1/C(=C/c2ccncc2)C[C@H]2[C@@H]3CC=C4C[C@@H](N5CCCC5)CC[C@]4(C)[C@H]3CC[C@]12C	26.8	28.2	37.7	27.2	27.7	37	29.5	26	27.9	28.3	29.4	45.9	38	21.6	35.8	33.7	35	–
COC(=O)c1c(O)ccc2c1c1c(n2Cc2ccc(Cl)cc2Cl)C(=O)c2ccccc2C1=O	19.3	21.4	11.6	42.9	20.4	27.6	29	30	27.2	32.3	31.5	27.2	24.8	12.3	26.1	33.1	23.5	–
COc1ccc(/C(O)=C/c2nc3cccnc3nc2/C=C(\O)c2ccc(OC)cc2)cc1	39.6	35.6	18.3	> 100	53.5	31.7	37.7	69	46.5	–	46.3	38.8	22.5	51.2	53.5	43.7	31.2	–
O=C(N/N=C/c1cc(Cl)cc(Cl)c1[O-])c1ccccc1O.O=C(N/N=C/c1cc(Cl)cc(Cl)c1[O-])c1ccccc1O.[Zn+2]	13.1	3.38	2.4	14.6	12.9	11.8	18.5	14.8	8.45	16.4	5.21	1.85	7.61	1.55	–	–	–	0.527
C[C@]12CC/C(=N\O)C=C1CC[C@@H]1[C@@H]2CC[C@]2(C)C(=N/O)/C(=C/c3ccc([N+](=O)[O-])cc3)C[C@@H]12	> 100	–	44.4	–	> 100	> 100	91	> 100	6.41	26.9	8.96	8.1	> 100	9.26	14.3	18.3	29.6	–
CCOC(=O)c1c(Cl)nc2ccccc2c1N=[N+]=[N-]	> 100	–	31.7	41.1	> 100	> 100	99.8	> 100	43.4	–	> 100	39.7	> 100	> 100	30.7	77.8	30.1	–
